Measurements as given in paper PMC8834506, “Optimization of Thymidine Kinase-Based Safety Switch for Neural Cell Therapy” (Cells, 2022).

Experiments:
[1] = test system: hESC (HS420) expressing Ki67-30-GMK; test: ATP-based cell survival assay, GCV-induced cell death; settings: Homo sapiens, 96 h, read-out: EC50 of GCV (cell survival)
Protocol: (§1) Our first generation of suicide gene was engineered with the wild type thymidine kinase (wt-TK). To improve the suicide gene efficacy, we investigated different TK variants; wt-TK, 30-GMK, SR39, SR39h, and SR39h D116E variants. These sequences were chosen based on the analysis of the literature investigating HSV1-TK variants, as well as a gain of function mutation in the CMV UL-97 kinase. The efficacy of each variants was determined as percentage of cell survival following prodrug treatment compared to non-treated hESC. For this purpose, we used the ATP-based assay, which measures cellular ATP content and thereby provides a reliable estimate of the number of healthy cells. […]
(§2) Figure 1 EC50 of ganciclovir (GCV) in cell expressing different thymidine kinase (TK) variants. […] Number of surviving cells was monitored using bioluminescent ATP-based assay. […]
(§3) Cell culture plate (96 wells plate Corning #3907, Corning, Lonay, Switzerland) were pre-coated with 60 μL per well of Poly-L-ornithine solution (Sigma, Merk, Eysins, Switzerland) at 37 °C for 30 min. […] For EC50 assays, the medium was changed daily for 4 days, then cell viability was assessed using an ATP-based assay. EC50 values for each construct were calculated using a four parameters equation (GraphPad, Prism8, San Diego, CA, USA). […]

[2] = test system: hESC (HS420) expressing Ki67-wt-TK; test: as above; settings: Homo sapiens; 96 h GCV exposure; wt-TK under Ki67 promoter
Protocol: as §1, §2, §3

**Q.** Which EC50 [1] does the source give for `Nc1nc(O)c2ncn(COC(CO)CO)c2n1` [GCV, ganciclovir] here?
**A.** The EC50 was 110 nM.

**Q.** What about the EC50 [2] of the same compound?
**A.** The EC50 was 96 nM.
